In publication PMC10302633 (Marine Drugs, 2023):

Key:
[1] = target: rat α7 nAChRs (Rattus norvegicus, UniProt Q05941); assay: cell-based; assay type: cell-based
[2] = target: rat α9α10 nAChRs (Rattus norvegicus, UniProt P43144+Q9JLB5); assay type: cell-based
[3] = target: human α9α10 nAChRs (Homo sapiens, UniProt Q9GZZ6+Q9UGM1); assay type: cell-based
[4] = target: human α7 nAChRs (Homo sapiens, UniProt P36544); assay: cell-based
Chain of human α7 nAChRs (P36544 23-502 limits assumed): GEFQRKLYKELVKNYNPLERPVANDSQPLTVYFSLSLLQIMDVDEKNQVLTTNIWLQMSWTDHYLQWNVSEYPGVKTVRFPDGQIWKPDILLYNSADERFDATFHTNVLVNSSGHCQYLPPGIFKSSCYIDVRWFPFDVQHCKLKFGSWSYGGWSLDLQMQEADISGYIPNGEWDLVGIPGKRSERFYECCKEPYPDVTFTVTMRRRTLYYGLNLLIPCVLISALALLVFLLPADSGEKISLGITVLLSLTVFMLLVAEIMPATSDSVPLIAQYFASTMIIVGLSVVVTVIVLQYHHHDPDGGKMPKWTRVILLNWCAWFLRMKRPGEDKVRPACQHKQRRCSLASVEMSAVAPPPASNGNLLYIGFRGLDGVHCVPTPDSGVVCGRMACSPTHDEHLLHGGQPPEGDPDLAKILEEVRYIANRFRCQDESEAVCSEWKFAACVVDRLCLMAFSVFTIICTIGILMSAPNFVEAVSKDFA

Chain of rat α7 nAChRs (Q05941 23-502 limits assumed): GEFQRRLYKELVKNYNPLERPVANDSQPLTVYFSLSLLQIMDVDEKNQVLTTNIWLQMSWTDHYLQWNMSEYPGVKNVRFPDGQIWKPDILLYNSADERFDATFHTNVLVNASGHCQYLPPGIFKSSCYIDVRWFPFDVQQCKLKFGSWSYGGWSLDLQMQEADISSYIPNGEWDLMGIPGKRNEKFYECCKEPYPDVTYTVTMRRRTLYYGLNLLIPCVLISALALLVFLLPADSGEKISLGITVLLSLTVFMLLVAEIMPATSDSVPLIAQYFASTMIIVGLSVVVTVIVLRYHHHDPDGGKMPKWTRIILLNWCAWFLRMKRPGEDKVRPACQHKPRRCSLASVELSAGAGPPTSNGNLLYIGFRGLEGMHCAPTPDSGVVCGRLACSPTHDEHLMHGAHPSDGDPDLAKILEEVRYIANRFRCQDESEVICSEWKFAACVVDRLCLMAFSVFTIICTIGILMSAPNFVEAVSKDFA
Chain of human α9α10 nAChRs (Q9UGM1 26-479 limits assumed): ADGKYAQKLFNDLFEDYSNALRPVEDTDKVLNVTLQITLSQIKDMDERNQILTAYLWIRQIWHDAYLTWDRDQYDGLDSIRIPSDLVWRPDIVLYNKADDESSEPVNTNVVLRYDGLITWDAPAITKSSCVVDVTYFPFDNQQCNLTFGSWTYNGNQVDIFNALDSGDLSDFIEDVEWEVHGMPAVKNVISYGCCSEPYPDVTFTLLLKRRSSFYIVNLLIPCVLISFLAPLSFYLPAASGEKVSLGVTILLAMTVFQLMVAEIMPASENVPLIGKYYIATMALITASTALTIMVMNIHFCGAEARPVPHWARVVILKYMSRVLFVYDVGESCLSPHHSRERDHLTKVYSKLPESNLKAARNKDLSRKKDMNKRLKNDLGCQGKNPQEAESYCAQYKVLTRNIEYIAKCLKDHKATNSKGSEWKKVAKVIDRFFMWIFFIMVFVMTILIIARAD
Chain of human α9α10 nAChRs (Q9GZZ6 25-450 limits assumed): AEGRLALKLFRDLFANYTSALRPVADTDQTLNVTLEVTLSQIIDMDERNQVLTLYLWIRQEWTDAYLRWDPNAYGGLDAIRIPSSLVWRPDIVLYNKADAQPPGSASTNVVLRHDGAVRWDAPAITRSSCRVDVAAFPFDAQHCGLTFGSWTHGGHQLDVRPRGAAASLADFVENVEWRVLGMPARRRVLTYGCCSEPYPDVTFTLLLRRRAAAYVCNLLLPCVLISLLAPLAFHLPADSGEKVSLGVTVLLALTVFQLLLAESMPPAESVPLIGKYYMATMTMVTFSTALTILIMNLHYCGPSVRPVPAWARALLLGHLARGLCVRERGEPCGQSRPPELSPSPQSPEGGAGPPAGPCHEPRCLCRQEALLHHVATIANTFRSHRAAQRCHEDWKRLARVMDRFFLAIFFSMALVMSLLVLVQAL
Chain of rat α9α10 nAChRs (P43144 26-479 limits assumed): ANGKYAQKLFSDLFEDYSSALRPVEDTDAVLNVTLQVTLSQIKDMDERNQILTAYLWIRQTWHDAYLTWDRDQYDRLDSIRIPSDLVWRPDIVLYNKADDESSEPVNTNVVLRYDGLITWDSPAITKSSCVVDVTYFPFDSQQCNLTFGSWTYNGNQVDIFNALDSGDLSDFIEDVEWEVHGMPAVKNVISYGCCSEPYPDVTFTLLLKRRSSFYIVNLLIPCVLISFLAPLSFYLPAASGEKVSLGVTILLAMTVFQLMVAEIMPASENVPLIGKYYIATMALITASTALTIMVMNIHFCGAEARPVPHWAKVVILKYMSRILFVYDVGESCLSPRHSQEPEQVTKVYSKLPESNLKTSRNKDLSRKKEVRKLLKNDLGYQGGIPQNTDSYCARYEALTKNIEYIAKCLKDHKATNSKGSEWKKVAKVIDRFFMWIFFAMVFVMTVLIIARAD
Chain of rat α9α10 nAChRs (Q9JLB5 25-447 limits assumed): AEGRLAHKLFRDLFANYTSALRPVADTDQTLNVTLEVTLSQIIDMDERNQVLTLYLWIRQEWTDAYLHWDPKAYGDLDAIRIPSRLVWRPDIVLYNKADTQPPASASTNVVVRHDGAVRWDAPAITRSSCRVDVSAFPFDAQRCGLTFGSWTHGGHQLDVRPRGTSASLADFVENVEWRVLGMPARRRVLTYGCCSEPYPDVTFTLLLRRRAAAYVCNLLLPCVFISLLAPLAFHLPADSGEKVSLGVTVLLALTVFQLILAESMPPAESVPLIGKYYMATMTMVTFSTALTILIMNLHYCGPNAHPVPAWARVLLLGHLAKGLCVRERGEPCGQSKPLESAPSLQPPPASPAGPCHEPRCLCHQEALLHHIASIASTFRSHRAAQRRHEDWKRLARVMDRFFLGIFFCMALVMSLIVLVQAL

N=C(N)NCCC[C@H](NC(=O)[C@@H]1CSSC[C@@H]2NC(=O)[C@@H](NC(=O)CN)CSSC[C@H](NC(=O)[C@H](CCCNC(=N)N)NC(=O)[C@@H]3CCCN3C(=O)[C@H](CC(=O)O)NC(=O)[C@H](CO)NC2=O)C(=O)N[C@@H](CCCNC(=N)N)C(=O)N[C@@H](Cc2ccc(O)cc2)C(=O)N[C@@H](CCCNC(=N)N)C(=O)N1)C(=O)O [RgIA]
Hill Slope [1]: 0.8 (0.4–1.1)
IC50 [1]: 5.31 µM
inhibition of ACh-evoked currents [1]: 60%
Hill Slope [2]: 0.8 (0.7–0.9)
Hill Slope [3]: 0.5 (0.4–0.6)
Hill Slope [4]: 0.7 (0.4–1.0)
IC50 [4]: 4.61 µM
